Test results published in the supplement of paper PMC10307832.

Columns and labels:
Assay in all cases: relative viability (nuclei count vs DMSO), 5 days (fraction); higher = more cells survive
Salubrinal + Lapatinib = compound: O=C(/C=C/c1ccccc1)NC(NC(=S)Nc1cccc2cccnc12)C(Cl)(Cl)Cl [Salubrinal] + CS(=O)(=O)CCNCc1ccc(-c2ccc3ncnc(Nc4ccc(OCc5cccc(F)c5)c(Cl)c4)c3c2)o1 [Lapatinib] (partner 2 µM)
In short: (§1)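 Relative viability divides the nuclei count in treated wells by that in vehicle wells. Lung cancer cell lines were seeded in 1536-well plates, dosed by pin tool the next day, and fixed and stained after 5 days in one step with final 0.05% Triton X-100, 1% formaldehyde and 1 ug/ml Hoechst. Dosing was a single drug or a fixed anchor-drug dose plus five library-drug doses (not always all listed) in √10 steps, and values are medians of duplicate plates imaged at 4×.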

Salubrinal + Bortezomib = compound: O=C(/C=C/c1ccccc1)NC(NC(=S)Nc1cccc2cccnc12)C(Cl)(Cl)Cl [Salubrinal] + CC(C)C[C@H](NC(=O)[C@H](Cc1ccccc1)NC(=O)c1cnccn1)B(O)O [Bortezomib] (partner 0.002 µM)
In short: as §1

[1] = compound: Cc1ccc2nc(NCCN)c3ncc(C)n3c2c1 + Cc1cc(Nc2cc(N3CCN(C)CC3)nc(Sc3ccc(NC(=O)C4CC4)cc3)n2)n[nH]1 [Tozasertib] (partner 0.1 µM)
In short: as §1

[2] = compound: Cc1ccc2nc(NCCN)c3ncc(C)n3c2c1 + N=C(N)NC(=N)NCCc1ccccc1 [Phenformin] (partner 250 µM)
In short: as §1

| Cell Line | relative viability (Salubrinal + Lapatinib; first compound 0.08 µM) | relative viability (Salubrinal + Lapatinib; first compound 0.253 µM) | relative viability (Salubrinal + Lapatinib; first compound 0.8 µM) | relative viability (Salubrinal + Lapatinib; first compound 2.53 µM) | relative viability (Salubrinal + Lapatinib; first compound 8 µM) | relative viability (Salubrinal + Bortezomib; first compound 0.08 µM) | relative viability (Salubrinal + Bortezomib; first compound 0.253 µM) | relative viability (Salubrinal + Bortezomib; first compound 0.8 µM) | relative viability (Salubrinal + Bortezomib; first compound 2.53 µM) | relative viability (Salubrinal + Bortezomib; first compound 8 µM) | relative viability ([1]; first compound 0.04 µM) | relative viability ([1]; first compound 0.1265 µM) | relative viability ([1]; first compound 0.4 µM) | relative viability ([1]; first compound 1.265 µM) | relative viability ([1]; first compound 4 µM) | relative viability ([2]; first compound 0.04 µM) | relative viability ([2]; first compound 0.1265 µM) | relative viability ([2]; first compound 0.4 µM) | relative viability ([2]; first compound 1.265 µM) | relative viability ([2]; first compound 4 µM) |
| --- | --- | --- | --- | --- | --- | --- | --- | --- | --- | --- | --- | --- | --- | --- | --- | --- | --- | --- | --- | --- |
| HARA | 0.709 | 0.651 | 0.819 | 0.748 | 0.828 | 1.14 | 1.01 | 1.16 | 1.13 | 1.06 | 0.77 | 0.156 | 0.126 | 0.107 | 0.11 | 0.437 | 0.449 | 0.388 | 0.342 | 0.453 |
| IA-LM | 0.742 | 0.536 | 0.916 | 0.856 | 0.593 | 1.01 | 0.874 | 0.895 | 0.68 | 0.758 | – | – | – | – | – | – | – | – | – | – |
| LCLC-103H | – | – | – | – | – | 0.97 | 0.971 | 1.2 | 1 | 1.15 | 0.426 | 0.525 | 0.384 | 0.427 | 0.439 | 0.342 | 0.349 | 0.332 | 0.365 | 0.348 |
| LK-2 | 1.07 | 0.977 | 1.16 | 0.994 | 0.85 | – | – | – | – | – | 0.171 | 0.174 | 0.152 | 0.154 | 0.179 | 0.358 | 0.559 | 0.307 | 0.325 | 0.415 |
| NCI-H358 | 0.531 | 0.514 | 0.365 | 0.494 | 0.47 | – | – | – | – | – | 0.11 | 0.134 | 0.0909 | 0.101 | 0.098 | 0.391 | 0.313 | 0.323 | 0.359 | 0.402 |
| NCI-H441 | – | – | – | – | – | 0.392 | 0.516 | 0.386 | 0.372 | 0.362 | 0.605 | 0.631 | 0.716 | 0.625 | 0.685 | 0.791 | 0.85 | 0.922 | 0.923 | 0.769 |
| NCI-H522 | – | – | – | – | – | – | – | – | – | – | 0.557 | 0.647 | 0.555 | 0.517 | 0.592 | 0.695 | 0.708 | 0.622 | 0.689 | 0.543 |
| NCI-H1299 | 0.96 | 0.924 | 0.98 | 0.918 | 0.883 | 1.05 | 0.971 | 1.02 | 1.02 | 1.02 | – | – | – | – | – | – | – | – | – | – |
| NCI-H1395 | 0.953 | 0.973 | 1.2 | 0.819 | 0.858 | – | – | – | – | – | 0.754 | 0.763 | 0.661 | 0.655 | 0.795 | 0.45 | 0.498 | 0.412 | 0.419 | 0.46 |
| NCI-H1563 | 0.992 | 1.05 | 0.975 | 0.886 | 0.882 | 0.791 | 0.937 | 0.859 | 0.844 | 0.776 | – | – | – | – | – | 0.652 | 0.684 | 0.662 | 0.65 | 0.654 |
| NCI-H1623 | – | – | – | – | – | – | – | – | – | – | 0.453 | 0.486 | 0.451 | 0.355 | 0.354 | 0.586 | 0.618 | 0.657 | 0.684 | 0.567 |
| NCI-H1648 | – | – | – | – | – | – | – | – | – | – | 0.498 | – | 0.546 | – | 0.3 | – | – | – | – | – |
| NCI-H1703 | 1.24 | – | 1.24 | 0.917 | 0.892 | 0.365 | 0.268 | 0.242 | 0.322 | 0.293 | – | – | – | – | – | – | – | – | – | – |
| NCI-H1792 | 1.11 | – | 1.64 | 0.914 | 0.873 | 1.2 | – | 1.23 | 0.92 | 0.806 | – | – | – | – | – | 0.308 | 0.436 | – | 0.411 | 0.358 |
| NCI-H1793 | 0.947 | 0.654 | 0.657 | 0.818 | 0.752 | – | – | – | – | – | 0.603 | 0.375 | 0.371 | 0.32 | 0.375 | 0.435 | 0.422 | 0.272 | 0.324 | 0.32 |
| NCI-H1944 | 0.583 | 0.899 | 0.804 | 0.902 | 0.846 | – | – | – | – | – | 0.256 | 0.248 | 0.246 | 0.241 | 0.253 | 0.201 | 0.196 | 0.201 | 0.187 | 0.195 |
| NCI-H2170 | 0.275 | 0.289 | 0.248 | 0.271 | 0.263 | – | – | – | – | – | 0.755 | 0.625 | 0.694 | 0.671 | 0.679 | 0.402 | 0.408 | 0.435 | 0.424 | 0.446 |
| NCI-H2342 | – | – | – | – | – | – | – | – | – | – | 0.481 | 0.583 | 0.47 | 0.599 | 0.463 | 0.592 | 0.816 | 0.636 | 0.581 | 0.559 |
| SK-MES-1 | 0.488 | 0.405 | 0.499 | 0.42 | 0.437 | – | – | – | – | – | 0.898 | 0.904 | 0.921 | 0.929 | 0.678 | 0.688 | 0.624 | 0.69 | 0.65 | 0.605 |
| SW 900 | – | – | – | – | – | – | – | – | – | – | 0.491 | 0.513 | – | 0.471 | 0.612 | 0.594 | 0.6 | – | 0.674 | 0.849 |
